Measurements from patent US11066399B2, “Ferroportin inhibitors” (Vifor (International) AG, priority 2015, dated 2021).
pEC50, pIC50: −log10 of the molar value.

Legend:
ferroportin (Fpn) = biological target: T1, ferroportin (Fpn) (Mus musculus, UniProt Q9JHI9); experiment: Hepcidin Internalization Assay (J774); type: cell-based; conditions: average (AVE) of multiple measurements; TMR-hepcidin 25 nM, J774 cells
T1 construct: host or cells: J774 mouse macrophage cell line, Fe(III)-NTA induced
T1 sequence (Q9JHI9 1-570): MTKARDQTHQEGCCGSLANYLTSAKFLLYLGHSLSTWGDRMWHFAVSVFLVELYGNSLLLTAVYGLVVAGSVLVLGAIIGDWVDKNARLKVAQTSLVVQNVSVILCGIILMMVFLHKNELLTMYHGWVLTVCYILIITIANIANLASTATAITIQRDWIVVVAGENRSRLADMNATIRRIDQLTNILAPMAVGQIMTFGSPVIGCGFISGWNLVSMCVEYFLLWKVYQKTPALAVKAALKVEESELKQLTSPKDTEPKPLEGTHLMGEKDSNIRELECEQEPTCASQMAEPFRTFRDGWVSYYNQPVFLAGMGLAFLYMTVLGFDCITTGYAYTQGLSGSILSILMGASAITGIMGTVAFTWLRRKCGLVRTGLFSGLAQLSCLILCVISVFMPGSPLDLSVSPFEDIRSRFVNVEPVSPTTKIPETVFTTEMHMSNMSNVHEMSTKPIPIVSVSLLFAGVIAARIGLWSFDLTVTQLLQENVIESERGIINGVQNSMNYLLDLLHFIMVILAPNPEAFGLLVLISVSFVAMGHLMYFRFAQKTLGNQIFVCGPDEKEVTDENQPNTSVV
Excerpt: This cellular assay allows quantification of the binding of hepcidin to ferroportin (Fpn) through microscopic detection of internalization of a fluorescently labeled hepcidin into J774 cells. […] Binding of hepcidin to Fpn triggers internalization and degradation of both hepcidin and Fpn. However, the TMR (6-carboxytetramethylrhodamine) fluorophore attached to hepcidin remains associated with the cell after degradation of the hepcidin peptide backbone. Therefore, microscopic detection of cell-associated TMR fluorescence is a measure of hepcidin binding to Fpn and internalization of hepcidin and Fpn. If TMR-hepcidin is prevented from binding to Fpn, cellular TMR fluorescence remains low (Dürrenberger et al, 2013). The effect of small molecular weight Fpn inhibitor compounds in this assay was evaluated in vitro as described below.
After overnight incubation, cells were washed 3 times with pre-warmed DMEM w/o phenol red, 30 μl/well of DMEM w/o phenol red was added after the final wash and 10 μl/well of dilution series of test compounds were added in triplicates. […] Cells were incubated in a total volume of 50 μl at 37° C. with 5% CO2 for 2 hours, then Hoechst 33342 dye was added to a final concentration of 0.5 μg/ml to stain nuclei and further incubated for 10 min. at 37° C. with 5% CO2. Cells were washed 3 times with PBS and fixed in 100 μl of 4% paraformaldehyde in PBS for 15 min. at room temperature. After removal of the paraformaldehyde solution, cells were washed 3 times with PBS leaving 100 μl per well and the plates were sealed with foil plate seal. TMR (530-550 nm excitation/575-625 nm emission/400 ms exposure time) and Hoechst 33342 (360-370 nm excitation/420-460 nm emission/10 ms exposure time) fluorescence images were acquired using a ScanR plate imager (Olympus) with a 20× high NA objective. Four pictures were acquired per well and fluorescence channel covering ca. 1500 cells per well. The acquired image data was analysed with the ScanR image analysis software. Image analysis included detection of nuclei (Hoechst 33342 fluorescence), identification of cell-associated regions, application of a virtual channel and thresholding for rolling-ball-type background reduction, followed by application of the Sum(Mean) algorithm to measure the TMR fluorescence associated with cells as a quantitative measure for internalized TMR-hepcidin. IC50 values were calculated with the Sum(Mean) raw data using “log(inhibitor) vs. response” curve fitting of Prism 5 software (GraphPad Software Inc., version 5.02).

[1] = biological target: T2, human Fpn-GFP fusion protein (Homo sapiens, UniProt Q9NP59); experiment: Ferroportin Internalization and Degradation Assay (FACS); type: cell-based; conditions: average (AVE) of multiple measurements, Fpn-GFP MFI, HEK-293 cell line #354, FACS
T2 construct: expressed in transfected cells; host or cells: HEK-293 cell line #354 (derivative of HEK-293 Tet-ON Advanced, Clontech)
T2 sequence (Q9NP59 1-571): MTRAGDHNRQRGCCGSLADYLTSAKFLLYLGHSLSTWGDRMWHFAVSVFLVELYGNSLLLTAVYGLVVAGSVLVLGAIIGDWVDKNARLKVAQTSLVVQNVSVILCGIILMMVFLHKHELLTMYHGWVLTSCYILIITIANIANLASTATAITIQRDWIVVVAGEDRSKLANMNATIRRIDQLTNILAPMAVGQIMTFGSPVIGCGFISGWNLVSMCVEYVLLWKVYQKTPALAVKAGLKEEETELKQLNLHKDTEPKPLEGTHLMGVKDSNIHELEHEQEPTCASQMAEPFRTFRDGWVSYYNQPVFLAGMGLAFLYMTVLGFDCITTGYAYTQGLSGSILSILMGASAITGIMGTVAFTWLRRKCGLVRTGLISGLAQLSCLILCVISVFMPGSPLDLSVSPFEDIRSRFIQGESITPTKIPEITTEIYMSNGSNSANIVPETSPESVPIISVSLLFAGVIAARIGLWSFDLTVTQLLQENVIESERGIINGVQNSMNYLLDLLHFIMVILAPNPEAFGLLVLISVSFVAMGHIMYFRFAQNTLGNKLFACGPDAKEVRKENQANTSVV
Protocol: Growing HEK-293 #354 cells in doxycycline containing media induced expression of human Fpn-GFP fusion protein on the cell surface. […] Small molecular weight Fpn inhibitor compounds were tested for dose-dependent effects on the Fpn-GFP mean fluorescence intensity (MFI) on HEK-293 cell line #354, as described below. HEK #354 cells were harvested from ca. 80% confluent cultures, seeded at 0.6×10^6 cells/ml in DMEM/F12 GlutaMAX™ medium (Invitrogen, Cat. 31331-028) containing 10% FBS (Clontech, Cat. 631106), 1% Penicillin-Streptomycin (Invitrogen, Cat. 15140-122), 200 μg/ml Hygromycin B (Invitrogen, Cat. 10687-010), Blasticidin 5 μg/ml, (Invitrogen, Cat. R210-01), 4 μg/ml doxycycline (Clontech, Cat. 631311), 50 μl per well of 384 well plates (Greiner; Cat. 781091) and grown at 37° C. with 5% CO2. After overnight incubation, 10 μl/well of dilution series of the test compounds were added in quadruplicates and plates were further incubated overnight at 37° C. with 5% CO2. Cells were washed once with FACS buffer (PBS containing 1% FBS, 2 mM EDTA and 0.05% NaN3), harvested in FACS buffer with 0.5 μg/ml propidium iodide (Sigma, Cat. P4864) and analyzed in a flow cytometer (CANTO™ II, BD Biosciences) equipped with high throughput sampler. Live HEK #354 cells were gated as propidium iodide negative population and analyzed for expression of Fpn-GFP.

SMILES	pIC50 (ferroportin (Fpn))	pEC50 [1]	DC50 ([1]; read-out: EC50 (the source's name)) [µM]
O=C(NCc1ncccc1F)c1cnc(C2CN(CCc3nc4ccccc4[nH]3)C2)o1 [Example 2]	7.46	6.20	–
O=C(NCc1ncccc1F)c1csc(CCNCc2nc3ccccc3[nH]2)n1 [Example 40]	7.31	6.09	–
O=C(NCc1ncccc1F)c1cnc(CCNCCc2nc3ccccc3[nH]2)o1 [Example 1]	7.92	6.66	–
O=C(NCc1ncccc1F)c1cnn(CCNCCc2cc3ccccc3[nH]2)c1 [Example 277]	7.96	–	0.069
